Test results: the supplement of paper PMC10307832

How the values were obtained:
Assay in all cases: relative viability (nuclei count vs DMSO), 5 days (fraction); higher = more cells survive
HARA = test system: HARA
Procedure, shortened: (§1)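 Relative viability divides the nuclei count in treated wells by that in vehicle wells. Lung cancer cell lines were seeded in 1536-well plates, dosed by pin tool the next day, and fixed and stained after 5 days in one step with final 0.05% Triton X-100, 1% formaldehyde and 1 ug/ml Hoechst. Dosing was a single drug or a fixed anchor-drug dose plus five library-drug doses (not always all listed) in √10 steps, and values are medians of duplicate plates imaged at 4×.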

201T = test system: 201T
Procedure, shortened: as §1

NCI-H661 = test system: NCI-H661
Procedure, shortened: as §1

LCLC-103H = test system: LCLC-103H
Procedure, shortened: as §1

SK-LU-1 = test system: SK-LU-1
Procedure, shortened: as §1

ChaGo-K-1 = test system: ChaGo-K-1
Procedure, shortened: as §1

H3255 = test system: H3255
Procedure, shortened: as §1

COR-L 105 = test system: COR-L 105
Procedure, shortened: as §1

NCI-H1975 = test system: NCI-H1975
Procedure, shortened: as §1

NCI-H3122 = test system: NCI-H3122
Procedure, shortened: as §1

HOP-62 = test system: HOP-62
Procedure, shortened: as §1

HCC-827 = test system: HCC-827
Procedure, shortened: as §1

NCI-H23 = test system: NCI-H23
Procedure, shortened: as §1

NCI-H2126 = test system: NCI-H2126
Procedure, shortened: as §1

NCI-H650 = test system: NCI-H650
Procedure, shortened: as §1

NCI-H2405 = test system: NCI-H2405
Procedure, shortened: as §1

NCI-H596 = test system: NCI-H596
Procedure, shortened: as §1

PC-3 [JPC-3] = test system: PC-3 [JPC-3]
Procedure, shortened: as §1

NCI-H727 = test system: NCI-H727
Procedure, shortened: as §1

LOU-NH91 = test system: LOU-NH91
Procedure, shortened: as §1

NCI-H2228 = test system: NCI-H2228
Procedure, shortened: as §1

EKVX = test system: EKVX
Procedure, shortened: as §1

`Cc1csc(=NC2CCCCC2)n1/N=C/c1ccc(O)c(O)c1O` [MIM1] + C[C@@H](Oc1cc(-c2cnn(C3CCNCC3)c2)cnc1N)c1c(Cl)ccc(F)c1Cl [Crizotinib] (partner 1 µM) was tested, and the relative viability (HARA; first compound 0.2 µM) was 1.06, the relative viability (HARA; first compound 0.6325 µM) was 1.13 and the relative viability (HARA; first compound 2 µM) was 1.08. It also gave a relative viability (HARA; first compound 6.325 µM) of 0.997, a relative viability (HARA; first compound 20 µM) of 0.138 and a relative viability (201T; first compound 0.2 µM) of 1.01. The relative viability (201T; first compound 0.6325 µM) was 1.04, the relative viability (201T; first compound 2 µM) was 1.04 and the relative viability (201T; first compound 6.325 µM) was 0.81. It also gave a relative viability (201T; first compound 20 µM) of 0.823, a relative viability (NCI-H661; first compound 0.2 µM) of 0.973 and a relative viability (NCI-H661; first compound 0.6325 µM) of 0.953. The relative viability (NCI-H661; first compound 2 µM) was 0.875, the relative viability (NCI-H661; first compound 6.325 µM) was 0.677 and the relative viability (NCI-H661; first compound 20 µM) was 0.531. It also gave a relative viability (LCLC-103H; first compound 0.2 µM) of 1, a relative viability (LCLC-103H; first compound 0.6325 µM) of 1 and a relative viability (LCLC-103H; first compound 2 µM) of 1.1. The relative viability (LCLC-103H; first compound 6.325 µM) was 0.909, the relative viability (LCLC-103H; first compound 20 µM) was 0.985 and the relative viability (SK-LU-1; first compound 0.2 µM) was 1.02. The relative viability (SK-LU-1; first compound 0.6325 µM) was 0.895, the relative viability (SK-LU-1; first compound 2 µM) was 1.07 and the relative viability (SK-LU-1; first compound 6.325 µM) was 0.815. The relative viability (SK-LU-1; first compound 20 µM) was 0.843, the relative viability (ChaGo-K-1; first compound 0.2 µM) was 1.07 and the relative viability (ChaGo-K-1; first compound 0.6325 µM) was 1.13. The relative viability (ChaGo-K-1; first compound 2 µM) was 0.953, the relative viability (ChaGo-K-1; first compound 6.325 µM) was 0.835 and the relative viability (ChaGo-K-1; first compound 20 µM) was 0.285. For the same molecule, the relative viability (H3255; first compound 0.2 µM) was 0.911, the relative viability (H3255; first compound 0.6325 µM) was 0.847 and the relative viability (H3255; first compound 2 µM) was 0.774. For the same molecule, the relative viability (H3255; first compound 6.325 µM) was 0.629, the relative viability (H3255; first compound 20 µM) was 0.435 and the relative viability (COR-L 105; first compound 0.2 µM) was 0.893. It also gave a relative viability (COR-L 105; first compound 0.6325 µM) of 0.811, a relative viability (COR-L 105; first compound 2 µM) of 0.612 and a relative viability (COR-L 105; first compound 6.325 µM) of 0.724. For the same molecule, the relative viability (COR-L 105; first compound 20 µM) was 0.759, the relative viability (NCI-H1975; first compound 0.2 µM) was 0.908 and the relative viability (NCI-H1975; first compound 0.6325 µM) was 1.1. It also gave a relative viability (NCI-H1975; first compound 2 µM) of 0.871, a relative viability (NCI-H1975; first compound 6.325 µM) of 0.545 and a relative viability (NCI-H1975; first compound 20 µM) of 0.482. For the same molecule, the relative viability (NCI-H3122; first compound 0.2 µM) was 0.272, the relative viability (NCI-H3122; first compound 0.6325 µM) was 0.251 and the relative viability (NCI-H3122; first compound 2 µM) was 0.32. The relative viability (NCI-H3122; first compound 6.325 µM) was 0.294, the relative viability (NCI-H3122; first compound 20 µM) was 0.204 and the relative viability (HOP-62; first compound 0.2 µM) was 0.927. For the same molecule, the relative viability (HOP-62; first compound 0.6325 µM) was 0.914, the relative viability (HOP-62; first compound 2 µM) was 0.642 and the relative viability (HOP-62; first compound 6.325 µM) was 0.888. For the same molecule, the relative viability (HOP-62; first compound 20 µM) was 0.0803, the relative viability (HCC-827; first compound 0.2 µM) was 0.971 and the relative viability (HCC-827; first compound 0.6325 µM) was 0.919. For the same molecule, the relative viability (HCC-827; first compound 2 µM) was 0.927, the relative viability (HCC-827; first compound 6.325 µM) was 0.307 and the relative viability (HCC-827; first compound 20 µM) was 0.366. The relative viability (NCI-H23; first compound 0.2 µM) was 0.554, the relative viability (NCI-H23; first compound 2 µM) was 0.334 and the relative viability (NCI-H23; first compound 6.325 µM) was 0.487. It also gave a relative viability (NCI-H23; first compound 20 µM) of 0.259, a relative viability (NCI-H2126; first compound 0.2 µM) of 1.05 and a relative viability (NCI-H2126; first compound 0.6325 µM) of 1.05. For the same molecule, the relative viability (NCI-H2126; first compound 2 µM) was 1.03, the relative viability (NCI-H2126; first compound 6.325 µM) was 0.963 and the relative viability (NCI-H2126; first compound 20 µM) was 0.659. The relative viability (NCI-H650; first compound 0.2 µM) was 0.649, the relative viability (NCI-H650; first compound 0.6325 µM) was 0.709 and the relative viability (NCI-H650; first compound 2 µM) was 0.662. For the same molecule, the relative viability (NCI-H650; first compound 6.325 µM) was 0.619, the relative viability (NCI-H650; first compound 20 µM) was 0.279 and the relative viability (NCI-H2405; first compound 0.2 µM) was 0.883. For the same molecule, the relative viability (NCI-H2405; first compound 0.6325 µM) was 0.864, the relative viability (NCI-H2405; first compound 2 µM) was 0.912 and the relative viability (NCI-H2405; first compound 6.325 µM) was 0.701. It also gave a relative viability (NCI-H2405; first compound 20 µM) of 0.508, a relative viability (NCI-H596; first compound 0.2 µM) of 0.965 and a relative viability (NCI-H596; first compound 0.6325 µM) of 1.11. For the same molecule, the relative viability (NCI-H596; first compound 2 µM) was 0.832, the relative viability (NCI-H596; first compound 6.325 µM) was 0.921 and the relative viability (NCI-H596; first compound 20 µM) was 0.741. The relative viability (PC-3 [JPC-3]; first compound 0.2 µM) was 0.989, the relative viability (PC-3 [JPC-3]; first compound 0.6325 µM) was 1 and the relative viability (PC-3 [JPC-3]; first compound 2 µM) was 1. The relative viability (PC-3 [JPC-3]; first compound 6.325 µM) was 0.768, the relative viability (PC-3 [JPC-3]; first compound 20 µM) was 0.451 and the relative viability (NCI-H727; first compound 0.2 µM) was 0.836. The relative viability (NCI-H727; first compound 0.6325 µM) was 0.81, the relative viability (NCI-H727; first compound 2 µM) was 0.795 and the relative viability (NCI-H727; first compound 6.325 µM) was 0.534. The relative viability (NCI-H727; first compound 20 µM) was 0.349, the relative viability (LOU-NH91; first compound 0.2 µM) was 0.748 and the relative viability (LOU-NH91; first compound 0.6325 µM) was 0.728. For the same molecule, the relative viability (LOU-NH91; first compound 2 µM) was 0.683, the relative viability (LOU-NH91; first compound 6.325 µM) was 0.675 and the relative viability (LOU-NH91; first compound 20 µM) was 0.392. It also gave a relative viability (NCI-H2228; first compound 0.2 µM) of 0.453, a relative viability (NCI-H2228; first compound 0.6325 µM) of 0.488 and a relative viability (NCI-H2228; first compound 2 µM) of 0.61. The relative viability (NCI-H2228; first compound 6.325 µM) was 0.241, the relative viability (NCI-H2228; first compound 20 µM) was 0.22 and the relative viability (EKVX; first compound 0.2 µM) was 0.989. For the same molecule, the relative viability (EKVX; first compound 0.6325 µM) was 0.887, the relative viability (EKVX; first compound 2 µM) was 0.788 and the relative viability (EKVX; first compound 6.325 µM) was 0.527. It also gave a relative viability (EKVX; first compound 20 µM) of 0.757.
